The values below come from patent US12590062B2, “PD-1/PD-L1 inhibitors” (Gilead Sciences, Inc., priority 2017, dated 2026).

pEC50, pIC50: −log10 of the molar value.

The target in one assay is PD-1/PD-L1 (Homo sapiens, UniProt Q9NZQ7). The assay is described as follows: PD-1/PD-L1 biochemical protein-protein interaction assay (ALPHA). The class given is binding. As to conditions: 0.3 nM His tagged PD-L1, 2.5 nM biotinylated Fc-PD-1, 60 minutes at 25° C., read-out: IC50 PD-L1-PD-1 Alpha IC50-mono PD-L1-fcP-D1. The essentials: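 Final concentrations 0.3 nM His-tagged PD-L1 and 2.5 nM biotinylated Fc-PD-1 (extracellular domains) were reacted with compound for 60 min at 25° C in pH 7.4 Hepes/NaCl/EDTA/Tween/BSA buffer. Binding was then detected by ALPHA beads, and IC50 values were taken from four-parameter curve fitting.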

The target of a further assay is T1, PD-1/PD-L1 interaction (Homo sapiens, UniProt Q9NZQ7).
T1 construct: expressed in transfected cells; host or cells: CHO cells (aAPC-PD-L1) co-cultured with Jurkat cells overexpressing PD-1 and an NFAT-luciferase reporter
The assay is described as follows: PD-1/PD-L1 NFAT reporter co-culture assay. The assay is classed as cell-based. The following applies: Jurkat PD-1 NFAT-luciferase cells co-cultured with aAPC-PD-L1 CHO cells, 6 hrs at 37° C.; read-out: EC50 NFAT Luciferase. The essentials:
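Compounds are scored by restoration of NFAT-luciferase signal in PD-1-expressing Jurkat cells cultured 6 h at 37 °C on CHO cells presenting anti-CD3 and PD-L1; EC50 values derive from four-parameter curve fitting.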

The next assay deals with T2, PD-L1 (Homo sapiens, UniProt Q9NZQ7).
T2 construct: determine if they can specifically dimerize the extracellular domains of PD-L1
The assay is described as follows: PD-L1/PD-L1 dimerization biochemical protein-protein interaction assay (ALPHA). The class given is binding. As to conditions: compound-induced PD-L1 dimerization, head prints '1 nM' (0.5 nM His-tagged PD-L1 and 0.5 nM FLAG-tagged PD-L1), read-out: AC50 PDL1 Dimer Alpha 1 nM. The essentials:
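ALPHA proximity assay of compound-induced dimerization of 0.5 nM His-tagged and 0.5 nM FLAG-tagged PD-L1 extracellular domains in Hepes pH 7.4 buffer, 2 h at 25 °C. Anti-His acceptor then anti-FLAG donor beads, 60 min each; AC50 from four-parameter fit.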

What is called pIC50 is the IC50 on a negative log10 scale, so that one unit is a factor of ten. As a reminder, the pEC50 is the negative decadic logarithm of the EC50, by convention in mol/L. One may read the AC50 as the concentration at which the activity in the assay is half-maximal.

T2 sequence (Q9NZQ7 19-238 limits assumed): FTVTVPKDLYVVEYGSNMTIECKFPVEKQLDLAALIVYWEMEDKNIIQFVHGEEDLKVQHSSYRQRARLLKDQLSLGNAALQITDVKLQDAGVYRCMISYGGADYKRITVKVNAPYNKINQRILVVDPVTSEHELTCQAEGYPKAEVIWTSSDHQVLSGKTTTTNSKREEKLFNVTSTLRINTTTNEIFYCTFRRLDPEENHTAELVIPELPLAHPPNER
T2 sequence (Q9NZQ7 19-238 limits assumed): as above
PD-1/PD-L1, sequence (Q9NZQ7 19-238 limits assumed): as above
T1 sequence (Q9NZQ7 19-290): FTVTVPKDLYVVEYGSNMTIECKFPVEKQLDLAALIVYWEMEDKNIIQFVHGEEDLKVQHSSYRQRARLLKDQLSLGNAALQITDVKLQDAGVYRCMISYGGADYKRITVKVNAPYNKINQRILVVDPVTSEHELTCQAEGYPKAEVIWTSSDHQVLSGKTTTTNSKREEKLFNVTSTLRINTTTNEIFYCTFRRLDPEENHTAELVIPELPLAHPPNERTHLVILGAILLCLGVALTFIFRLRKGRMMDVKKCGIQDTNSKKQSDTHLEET

Consider `CC(=O)NCCNCc1ccc(-c2cccc(-c3cccc(COc4cc(OCc5cncc(C#N)c5)c(CN[C@@](C)(CO)C(=O)O)cc4Cl)c3C)c2C)cc1` [Example 362, (S)-2-((4-((4″-(((2-acetamidoethyl)amino)methyl)-2,2′-dimethyl-[1,1′:3′,1″-terphenyl]-3-yl)methoxy)-5-chloro-2-((5-cyanopyridin-3-yl)methoxy)benzyl)amino)-3-hydroxy-2-methylpropanoic acid], for which, at PD-1/PD-L1, the pIC50 is 9.98. Besides, the pEC50 at PD-1/PD-L1 interaction is 6.66. For the same molecule, the AC50 on PD-L1 was 108 nM.
For `Cc1c(COc2cc(OCc3cncc(C#N)c3)c(CN[C@@](C)(CO)C(=O)O)cc2Cl)cccc1-c1cccc(-c2ccc(CNC3CNC(=O)C3)cc2)c1C` (stereo partly drawn) [Example 363, (2S)-2-((5-chloro-2-((5-cyanopyridin-3-yl)methoxy)-4-((2,2′-dimethyl-4″-(((5-oxopyrrolidin-3-yl)amino)methyl)-[1,1′:3′,1″-terphenyl]-3-yl)methoxy)benzyl)amino)-3-hydroxy-2-methylpropanoic acid] the same measures were 10.09, 6.77 and 171 nM.
For `Cc1c(COc2cc(OCc3cncc(C#N)c3)c(CN[C@@](C)(CO)C(=O)O)cc2Cl)cccc1-c1cccc(-c2ccc(OCCc3cccnc3)c(CNCCO)c2)c1C` [Example 364, (S)-2-((5-chloro-2-((5-cyanopyridin-3-yl)methoxy)-4-((3″-(((2-hydroxyethyl)amino)methyl)-2,2′-dimethyl-4″-(2-(pyridin-3-yl)ethoxy)-[1,1′:3′,1″-terphenyl]-3-yl)methoxy)benzyl)amino)-3-hydroxy-2-methylpropanoic acid] the same measures were 9.52, 6.45 and 98.3 nM.
Regarding `Cc1c(COc2cc(OCc3cncc(C#N)c3)c(CNCCO)cc2Cl)cccc1-c1cccc(-c2ccc(CNCCO)cc2)c1CF` [Example 365, 5-((4-chloro-5-((2′-(fluoromethyl)-4″-(((2-hydroxyethyl)amino)methyl)-2-methyl-[1,1′:3′,1″-terphenyl]-3-yl)methoxy)-2-(((2-hydroxyethyl)amino)methyl)phenoxy)methyl)nicotinonitrile], the pIC50 on PD-1/PD-L1 was 8.80. Besides, the pEC50 at PD-1/PD-L1 interaction was 6.39. Further, the AC50 on PD-L1 was determined as 174 nM.
For `Cc1c(COc2cc(OCc3cncc(C#N)c3)c(CN[C@H]3CCCC[C@@H]3O)cc2Cl)cccc1-c1cccc(-c2cccc(OCCNCCO)c2)c1C` [Example 367, 5-((4-chloro-2-((((1S,2S)-2-hydroxycyclohexyl)amino)methyl)-5-((3″-(2-((2-hydroxyethyl)amino)ethoxy)-2,2′-dimethyl-[1,1′:3′,1″-terphenyl]-3-yl)methoxy)phenoxy)methyl)nicotinonitrile] the same measures were 8.60, 6.42 and 227 nM.
For `Cc1c(COc2cc(OCc3cncc(C#N)c3)c(CN[C@@H]3CCC[C@@H]3O)cc2Cl)cccc1-c1cccc(-c2ccc(CN3CC(CC(=O)O)C3)cc2)c1C` [Example 368, 2-(1-((3″-((2-chloro-5-((5-cyanopyridin-3-yl)methoxy)-4-((((1R,2S)-2-hydroxycyclopentyl)amino)methyl)phenoxy)methyl)-2′,2″-dimethyl-[1,1′:3′,1″-terphenyl]-4-yl)methyl)azetidin-3-yl)acetic acid] the same measures were 8.73, 6.93 and 274 nM.
On to `Cc1c(COc2cc(OCc3cncc(C#N)c3)c(CN[C@@H]3CCC[C@@H]3O)cc2Cl)cccc1-c1cccc(-c2ccc3c(c2)CCC3N2CC[C@H](C(=O)O)C2)c1C` (stereo partly drawn) [Example 369, (3S)-1-(5-(3′-((2-chloro-5-((5-cyanopyridin-3-yl)methoxy)-4-((((1R,2S)-2-hydroxycyclopentyl)amino)methyl)phenoxy)methyl)-2,2′-dimethyl-[1,1′-biphenyl]-3-yl)-2,3-dihydro-1H-inden-1-yl)pyrrolidine-3-carboxylic acid], for which the pIC50 on PD-1/PD-L1 is 9.79. Further, the pEC50 at PD-1/PD-L1 interaction was 6.97. Moreover, the AC50 on PD-L1 came to 57.6 nM.
On to `Cc1c(COc2cc(OCc3cncc(C#N)c3)c(CN3CC[C@@H](O)C3)cc2Cl)cccc1-c1cccc(-c2ccc3c(c2)CCC3N2CC[C@@H](C(=O)O)C2)c1C` (stereo partly drawn) [Example 370, (3R)-1-(5-(3′-((2-chloro-5-((5-cyanopyridin-3-yl)methoxy)-4-(((R)-3-hydroxypyrrolidin-1-yl)methyl)phenoxy)methyl)-2,2′-dimethyl-[1,1′-biphenyl]-3-yl)-2,3-dihydro-1H-inden-1-yl)pyrrolidine-3-carboxylic acid], for which the negative logarithm of the IC50 (pIC50) on PD-1/PD-L1 is 9.86. Further, the pEC50 on PD-1/PD-L1 interaction is 6.24. Moreover, the AC50 on PD-L1 was 81.4 nM.
As to `Cc1c(COc2cc(OCc3cncc(C#N)c3)c(CN[C@@](C)(CO)C(=O)O)cc2Cl)cccc1-c1cccc(-c2ccc3c(c2)CCC3N2CC(C)C2)c1C` (stereo partly drawn) [Example 371, (2S)-2-((5-chloro-2-((5-cyanopyridin-3-yl)methoxy)-4-((2,2′-dimethyl-3′-(1-(3-methylazetidin-1-yl)-2,3-dihydro-1H-inden-5-yl)-[1,1′-biphenyl]-3-yl)methoxy)benzyl)amino)-3-hydroxy-2-methylpropanoic acid], the pIC50 at PD-1/PD-L1 is 10.13. Besides, at PD-1/PD-L1 interaction, the pEC50 was 6.68. In addition, the AC50 at PD-L1 was found to be 78 nM.
For `Cc1c(COc2cc(OCc3cncc(C#N)c3)c(CNC[C@@H](O)CC(=O)O)cc2Cl)cccc1-c1cccc(-c2cc3c(cc2F)C(N(C)C)CC3)c1C` (stereo partly drawn) [Example 372, (3S)-4-((5-chloro-2-((5-cyanopyridin-3-yl)methoxy)-4-((3′-(1-(dimethylamino)-6-fluoro-2,3-dihydro-1H-inden-5-yl)-2,2′-dimethyl-[1,1′-biphenyl]-3-yl)methoxy)benzyl)amino)-3-hydroxybutanoic acid] the same measures were 8.95, 6.07 and 425 nM.
For the molecule `Cc1c(COc2cc(OCc3cncc(C#N)c3)c(CNCCO)cc2Cl)cccc1-c1cccc(-c2ccc3c(c2)CCC3N2CC[C@H](O)C2)c1C` (stereo partly drawn) [Example 373, 5-((4-chloro-2-(((2-hydroxyethyl)amino)methyl)-5-((3′-(1-((S)-3-hydroxypyrrolidin-1-yl)-2,3-dihydro-1H-inden-5-yl)-2,2′-dimethyl-[1,1′-biphenyl]-3-yl)methoxy)phenoxy)methyl)nicotinonitrile], the pIC50 at PD-1/PD-L1 is 8.59. Besides, the pEC50 at PD-1/PD-L1 interaction was 6.47. Also, the AC50 at PD-L1 is 168 nM.
Consider `Cc1c(COc2cc(OCc3cncc(C#N)c3)c(CN[C@@](C)(CO)C(=O)O)cc2Cl)cccc1-c1cccc(-c2ccc(C3CCCN3CCO)cc2)c1C` (stereo partly drawn) [Example 374, (2S)-2-((5-chloro-2-((5-cyanopyridin-3-yl)methoxy)-4-((4″-(1-(2-hydroxyethyl)pyrrolidin-2-yl)-2,2′-dimethyl-[1,1′:3′,1″-terphenyl]-3-yl)methoxy)benzyl)amino)-3-hydroxy-2-methylpropanoic acid], for which the pIC50 on PD-1/PD-L1 is 9.87. In addition, on PD-1/PD-L1 interaction, the pEC50 is 6.10. For the same molecule, the AC50 at PD-L1 was 165 nM.
As for `Cc1c(COc2cc(OCc3cncc(C#N)c3)c(CN[C@@](C)(CO)C(=O)O)cc2Cl)cccc1-c1cccc(-c2ccc3c(c2)CCC3N(C)CCO)c1C` (stereo partly drawn) [Example 375, (2S)-2-((5-chloro-2-((5-cyanopyridin-3-yl)methoxy)-4-((3′-(1-((2-hydroxyethyl)(methyl)amino)-2,3-dihydro-1H-inden-5-yl)-2,2′-dimethyl-[1,1′-biphenyl]-3-yl)methoxy)benzyl)amino)-3-hydroxy-2-methylpropanoic acid], the negative logarithm of the IC50 (pIC50) on PD-1/PD-L1 was 9.68. Besides, the pEC50 at PD-1/PD-L1 interaction is 6.41. Moreover, at PD-L1, the AC50 was found to be 173 nM.
For `Cc1c(COc2cc(OCc3cncc(C#N)c3)c(CN3C[C@@H](O)C[C@H]3C(=O)O)cc2Cl)cccc1-c1cccc(-c2ccc3c(c2)CC[C@H]3N(C)C)c1C` [Example 377, (2S,4S)-1-(5-chloro-2-((5-cyanopyridin-3-yl)methoxy)-4-((3′-((R)-1-(dimethylamino)-2,3-dihydro-1H-inden-5-yl)-2,2′-dimethyl-[1,1′-biphenyl]-3-yl)methoxy)benzyl)-4-hydroxypyrrolidine-2-carboxylic acid] the same measures were 9.75, 6.58 and 231 nM.
For `Cc1c(COc2cc(OCc3cncc(C#N)c3)c(CNCCO)cc2Cl)cccc1-c1cccc(-c2ccc(C3CCCN3)cc2)c1C` (stereo not drawn) [Example 379, 5-((4-chloro-5-((2,2′-dimethyl-4″-(pyrrolidin-2-yl)-[1,1′:3′,1″-terphenyl]-3-yl)methoxy)-2-(((2-hydroxyethyl)amino)methyl)phenoxy)methyl)nicotinonitrile], the pIC50 on PD-1/PD-L1 is 8.62. Also, the pEC50 at PD-1/PD-L1 interaction is 6.38. On PD-L1, the AC50 came out at 153 nM.
